Results from patent EP0950398A2, “Use of esters as dispersants or solvents in sunscreens and solar protection pigments” (Henkel Kommanditgesellschaft auf Aktien, priority 1998, dated 1999).

Test: UV absorption of 5 ppm Octylmethoxy Cinnamate dissolved in different oil bodies (absorption increase)
Format: physicochemical
Settings: for Absorptionssteigerung: 5 ppm Octylmethoxy Cinnamate in the oil body, 1-cm cuvette, 308 nm, absorption in Mineralöl taken as 100 %
From the text: Zur Bestimmung der Absorptionssteigerung wurden Lösungen von 5 ppm Octylmethoxy Cinnamate in verschiedenen Ölkörpern hergestellt und die UV-Absorption in einer 1-cm Küvette bei einer Wellenlänge von 308 nm bestimmt. Die Absorption in Mineralöl wurde dazu als 100 % angenommen und alle übrigen Absorptionen dazu ins Verhältnis gesetzt. Des weiteren wurden verschiedene UV-Filter (OT = Octyl Triazone; BMDBM = Butyl Methoxydibenzoylmethane; B3 = Benzophenone-3 und 4MBC = 4-Methylbenzyliden Camphor) in den Ölkörpern in der Wärme gelöst und die Löslichkeit bei 15°C bestimmt. Die Ergebnisse sind in Tabelle 1 zusammengefaßt. Tabelle 1

Absorptionssteigerung [%]	UV-Absorption unterstützt (result in words, comparison of all tested oil bodies)	Structure (SMILES)
105	–	CCCCCCCCOCCCCCCCC [Dicaprylyl Ether, reference compound]
117	am stärksten	CCCCOC(=O)CCCCC(=O)OCCCC [Dibutyl Adipate]
